Source: patent publication US5274002A, “Trisubstituted phenyl analogs having activity for congestive heart failure” (Warner-Lambert Company, priority 1990, dated 1993)

Experiments:
anesthetized dog = assay: in vivo myocardial inotropic activity in the anesthetized dog; conditions: 1.0 mg/kg, change from control data prior to dosing
Method: TEST FOR IN VIVO MYOCARDIAL INOTROPIC ACTIVITY IN THE ANESTHETIZED DOG
Adult mongrel dogs of either sex are anesthetized with pentobarbital, 35 mg/kg, IV, and are maintained under anesthesia with a continuous infusion of pentobarbital, 3.5 mg/kg/hr. The trachea is intubated, but the animals are permitted to breathe spontaneously. A cannula is inserted into the femoral vein for administering test agents. A Millar catheter tip pressure transducer or a fluid filled catheter is inserted into the ascending aorta via the femoral artery for measuring pressure. A Millar catheter tip pressure transducer is passed into the left ventricle via the left carotid artery for measuring left ventricular blood pressure. Needle electrodes are placed subcutaneously for recording a lead II electrocardiogram. Before administering test agents, control data is acquired over a period of at least thirty minutes.
The test agent is dissolved in dimethylacetamide. Each dose is administered in a volume of 0.5 ml over a period of one minute. Appropriate vehicle controls are also administered.
When tested by this protocol, representative compounds of formula I, when administered at a dose of 1 mg/kg, produced an increase in contractility, a minimal increase in blood pressure, and an increase in heart rate as shown in the following Table B.

[1] = tested on: isolated Langendorff rat heart; assay: isolated Langendorff rat heart (CVIH), coronary flow; conditions: In Vitro Langendorf Isolated Rat Heart, constant perfusion pressure 70 mm Hg, 37° C.; for EC25: read-out: EC 25 (Coronary Flow); for EC50: read-out: EC 50 (Coronary Flow)
Method: TEST FOR INOTROPIC, CHRONOTROPIC, AND VASCULAR ACTIVITIES IN THE ISOLATED LANGENDORFF RAT HEART (CVIH)
Male rats (400-600 gms) are pretreated with 2000 units Na heparin (Parke-Davis) and anesthetized with Na pentobarbital (50 mg/kg, Butler Co.) administered intraperitoneally. Once anesthetized, the rat heart is rapidly excised, the ascending aorta fitted to the aortic perfusion cannula, and secured with a ligature. The coronary arteries were perfused initially at a rate of about 15 ml/min for two to three minutes, after which they are perfused at constant pressure of 70 mm Hg and temperature of 37° C. The electrocardiogram (ECG) is recorded using two platinum electrodes positioned at the base and apex of the left ventricle. A second heart is excised, cannulated, and perfused by the same method outlined above. Both hearts are tested in parallel. The standard physiological salt solution (PSS) is a modified Krebs-Hanseleit bicarbonate buffer of the following composition in mM concentration: NaCl, 127; NaHCO3, 25; dextrose, 5.5; Na Pyruvate, 2.0; KCl, 4.7;MgSO4, 1.1; KH2 PO4, 1.2; CaCl2 ·2H2O, 2.5; CaNa2 EDTA, 0.05.
A 30-minute stabilization period is observed before starting the test protocol.
Microprocessor Controlled Coronary Perfusion and Drug Delivery System
The microprocessor control system is a servo mechanism which permits coronary perfusion pressure (CPP) and drug concentration to be maintained constant independent of changes in coronary flow. The level at which CPP and drug concentration are maintained can be changed by commands communicated through the microprocessor keyboard. Dose-response curves are carried out by perfusing a solution at a specified drug concentration (DC) at rates proportional to total coronary flow (CFT). Drug concentrations are increased by proportionate increases in the rate of DC infusion over CFT via the microprocessor keyboard. The proportional flow rates for DC:CFT is about 0.0002:1 at the low end and 0.02:1 at the high end of the dose-response curve. Dose-response curves encompassing at least two log doses are carried out by preparing two DCs with a concentration difference of 1:100. Following the first dose range of two log doses, the DC is switched, proportional pumping rate adjusted, and the dose-response curve continued for another two log doses. The standard dose-response curve is carried out in one-half log dose increments starting at a subthreshold dose and ending at a dose which produces near maximal response in activity. Standard reference compounds are tested over the range of 10^-9 to 10^-6 M.
Measurements are for coronary flow (CF). Units are: CF, milliliters/minute (ml/min). CF is calculated by recording analog outputs from pumps 1 and 2. Outputs from pump #1=CFT and the output from pump #2=CF for heart B (CFB) CF for heart A (CFA) is calculated (CFT -CFB =CFA).
Using the above coronary blood flow evaluation technique, the effects of the compounds of each indicated example is shown as the EC (effective concentration) 25/(effective concentration) EC 50.

Structure (SMILES)	Blood Pressure, percent increase (+) or decrease (-) from control data (anesthetized dog)	Contractility, percent increase (+) or decrease (-) from control data (anesthetized dog)	Heart Rate, percent increase (+) or decrease (-) from control data (anesthetized dog)	EC25 [1] [µM]	EC50 [1] [µM]
COc1ccc(CCC(N)=O)cc1OC1CCCC1 [Example 16, 3-(3-Cyclopentoxy-4-methoxyphenyl)-n-propionyl amide]	+5%	+127%	+25%	3	10
COc1ccc(CCCO)cc1OC1CCCC1 [Example 19, 3-(3-Cyclopentoxy-4-methoxyphenyl)-n-1-propanol]	+9%	+91%	+25%	2	7
COc1ccc(/C=C/C=O)cc1OC1CCCC1 [Example 21, 3-(3-Cyclopentoxy-4-methoxyphenyl)-E-propene-1-aldehyde]	-1%	+62%	+35%	1.1	2
COC(=O)/C=C/c1ccc(OC)c(OC2CCCC2)c1 [Example 3, Methyl 3-(3-cyclopentoxy-4-methoxyphenyl)-E-propenoate]	+16%	+77%	+20%	2	> 500
COC(=O)CCc1ccc(OC)c(OC2CCCC2)c1 [Example 9, Methyl 3-(3-cyclopentoxy-4-methoxyphenyl)-n-propionate]	+5%	+36%	+41%	15	22
COc1ccc(CCC(=O)O)cc1OC1CCCC1 [Example 13, 3-(3-Cyclopentoxy-4-methoxyphenyl)-n-propanoic acid]	+9%	+47%	+23%	4	15
